# Assay results as given in patent US11534457B2, “Use of dextran sulfate” (priority 2017, dated 2022).
# Test system: severe traumatic brain injury (sTBI)
# Assay: sTBI in rats, brain gene expression arrays and pathway analysis (Example 9)
# Type: in vivo, Male Wistar rats
# Design: key to z score, canonical pathway Dendritic Cell Maturation / z score, canonical pathway Adrenomedullin Signaling pathway / z score, canonical pathway Endothelin-1 Signaling / effect on canonical pathway Adrenomedullin Signaling pathway / effect on canonical pathway Endothelin-1 Signaling / effect on canonical pathway Dendritic Cell Maturation / Ingenuity canonical pathway Adrenomedullin signaling pathway, z score / Ingenuity canonical pathway FLT3 Signaling in Hematopoietic Progenitor Cells, z score / Ingenuity canonical pathway Opioid Signaling Pathway, z score / Ingenuity canonical pathway VDR/RXR Activation, z score / Ingenuity canonical pathway Neuropathic Pain Signaling In Dorsal Horn Neurons, z score / Ingenuity canonical pathway STAT3 Pathway, z score / Ingenuity canonical pathway IL-1 Signaling, z score / Ingenuity canonical pathway IL-6 Signaling, z score / Ingenuity canonical pathway NF-κB Signaling, z score / Ingenuity canonical pathway Role of NFAT in Cardiac Hypertrophy, z score / Ingenuity canonical pathway PPARα/RXRα Activation, z score: *: ambiguous effect
# Conditions: TBI + 5 mg/kg LMW-DS
# Experimental: The experimental protocol used in this study was approved by the Ethical Committee of the Catholic University of Rome, according to international standards and guidelines for animal care. Male Wistar rats of 300-350 g body weight were fed with standard laboratory diet and water ad libitum in a controlled environment. As the anesthetic mixture, the animals received 35 mg/kg b.w. ketamine and 0.25 mg/kg body weight midazolam by i.p. injection. Severe traumatic brain injury (sTBI) was induced by dropping a 450 g weight from 2 m height on to the rat head that had been protected by a metal disk previously fixed on the skull, according to the “weight drop” impact acceleration model (Marmarou et al., A new model of diffuse brain injury in rats. Part I: Pathophysiology and biomechanics. J Neurosurg. 1994; 80: 291-300). […] At the end of each period of treatment, rats were anesthetized again and then immediately sacrificed.
# LMW-DS (Tikomed AB) was provided at a stock concentration of 20 mg/ml and was kept in a temperature-monitored refrigerator at 4° C. LMW-DS aliquots were diluted to the appropriate dosing concentration in sterile saline prior to delivery of a single subcutaneous injection.
# Three doses of LMW-DS were administered subcutaneously 30 minutes post-TBI. The animals were sacrificed at 2 days post-TBI. The animals were divided into the following subgroups:
# Three doses of LMW-DS were administered subcutaneously 30 minutes post-TBI. The animals were sacrificed at 7 days post-TBI. The animals were divided into the following subgroups:
# An in vivo craniectomy was performed on all animals during anesthesia. After carefully removing the rat's skull, the brain was exposed and removed with a surgical spatula and quickly dropped in RNALater and preserved at 4° C. for further processing.
# RNA extraction and array processing was carried out by SourceBioscience. The arrays used were the Agilent Rat expression arrays.
# Statistical analysis was carried out using the Metaboanalyst software package. Gene expression changes of 10% with a p<0.05 were regarded as significant.
# Pathway analysis of the differentially regulated genes was carried out using the Ingenuity pathway analysis package. The analysis was performed with special reference to pathways and molecular processes and diseases associated with neurodegenerative disease, including dementia, Alzheimer's disease, ALS, TBI and stroke, and with scarring and fibrosis, including glaucoma and normal pressure hydrocephalus (NPH) after subarachnoid haemorrhage.
# [1] = 7 days after TBI, relative to control
substance,measurement,setting,value
low molecular weight dextran sulfate [LMW-DS],"Ingenuity canonical pathway PPARα/RXRα Activation, z score",[1],*
same,"Ingenuity canonical pathway Phospholipase C Signaling, z score",[1],1
same,"Ingenuity canonical pathway Production of Nitric Oxide and Reactive Oxygen Species in Macrophages, z score",[1],2.236
same,"Ingenuity canonical pathway Protein Kinase A Signaling, z score",[1],−1.342
same,"Ingenuity canonical pathway Role of NFAT in Cardiac Hypertrophy, z score",[1],*
same,"Ingenuity canonical pathway Role of NFAT in Regulation of the Immune Response, z score",[1],2.53
same,"Ingenuity canonical pathway STAT3 Pathway, z score",[1],*
same,"Ingenuity canonical pathway Signaling by Rho Family GTPases, z score",[1],1
same,"Ingenuity canonical pathway Synaptic Long Term Depression, z score",[1],1
same,"Ingenuity canonical pathway VDR/RXR Activation, z score",[1],*
same,"Ingenuity canonical pathway Wnt/β-catenin Signaling, z score",[1],−1
same,"Ingenuity canonical pathway cAMP-mediated signaling, z score",[1],−2
same,Diseases or functions annotation: Apoptosis,"after 7 days, TBI: Activated",Inhibited
same,Diseases or functions annotation: Apoptosis of tumor cell lines,"after 7 days, TBI: Activated",Inhibited
same,Diseases or functions annotation: Bleeding,"after 7 days, TBI: Activated",Inhibited
same,Diseases or functions annotation: Breast or colorectal cancer,"after 7 days, TBI: Activated",Inhibited
same,Diseases or functions annotation: Breast or ovarian cancer,"after 7 days, TBI: Activated",Inhibited
same,Diseases or functions annotation: Cell death,"after 7 days, TBI: Activated",Activated
same,Diseases or functions annotation: Cell death of epithelial cells,"after 7 days, TBI: Activated",Activated
same,Diseases or functions annotation: Cell death of tumor cell lines,"after 7 days, TBI: Activated",Inhibited
same,Diseases or functions annotation: Development of sensory organ,"after 7 days, TBI: Activated",Activated
same,Diseases or functions annotation: Digestive organ tumor,"after 7 days, TBI: Activated",Inhibited
same,Diseases or functions annotation: Extracranial solid tumor,"after 7 days, TBI: Activated",Activated
same,Diseases or functions annotation: Failure of kidney,"after 7 days, TBI: Activated",Activated
same,Diseases or functions annotation: Formation of eye,"after 7 days, TBI: Activated",Activated
same,Diseases or functions annotation: Gastrointestinal tumor,"after 7 days, TBI: Activated",Inhibited
same,Diseases or functions annotation: Glucose metabolism disorder,"after 7 days, TBI: Activated",Activated
same,Diseases or functions annotation: Hematologic cancer,"after 7 days, TBI: Activated",Inhibited
same,Diseases or functions annotation: Hematologic cancer of cells,"after 7 days, TBI: Activated",Inhibited
same,Diseases or functions annotation: Hematopoietic neoplasm,"after 7 days, TBI: Activated",Inhibited
same,Diseases or functions annotation: Intestinal tumor,"after 7 days, TBI: Activated",Inhibited
same,Diseases or functions annotation: Lymphatic system tumor,"after 7 days, TBI: Activated",Inhibited
same,Diseases or functions annotation: Lymphocytic cancer,"after 7 days, TBI: Activated",Inhibited
same,Diseases or functions annotation: Lymphocytic neoplasm,"after 7 days, TBI: Activated",Inhibited
same,Diseases or functions annotation: Lymphoid cancer,"after 7 days, TBI: Activated",Inhibited
same,Diseases or functions annotation: Lymphoma,"after 7 days, TBI: Activated",Inhibited
same,Diseases or functions annotation: Lymphoproliferative disorder,"after 7 days, TBI: Activated",Inhibited
same,Diseases or functions annotation: Lymphoreticular neoplasm,"after 7 days, TBI: Activated",Inhibited
same,Diseases or functions annotation: Morbidity or mortality,"after 7 days, TBI: Activated",Inhibited
same,Diseases or functions annotation: Necrosis,"after 7 days, TBI: Activated",Activated
same,Diseases or functions annotation: Necrosis of epithelial tissue,"after 7 days, TBI: Activated",Activated
same,Diseases or functions annotation: Neoplasia of leukocytes,"after 7 days, TBI: Activated",Inhibited
same,Diseases or functions annotation: Obesity,"after 7 days, TBI: Activated",Activated
same,Diseases or functions annotation: Organismal death,"after 7 days, TBI: Activated",Inhibited
same,Diseases or functions annotation: Peripheral vascular disease,"after 7 days, TBI: Activated",Activated
same,Diseases or functions annotation: Renal impairment,"after 7 days, TBI: Activated",Activated
same,Diseases or functions annotation: Sensory system development,"after 7 days, TBI: Activated",Inhibited
same,Diseases or functions annotation: Skin lesion,"after 7 days, TBI: Activated",Inhibited
same,Diseases or functions annotation: Skin tumor,"after 7 days, TBI: Activated",Inhibited
same,Diseases or functions annotation: Abdominal adenocarcinoma,"after 7 days, TBI: Inhibited",Activated
same,Diseases or functions annotation: Abdominal cancer,"after 7 days, TBI: Inhibited",Inhibited
same,Diseases or functions annotation: Abdominal carcinoma,"after 7 days, TBI: Inhibited",Inhibited
same,Diseases or functions annotation: Abdominal neoplasm,"after 7 days, TBI: Inhibited",Activated
same,Diseases or functions annotation: Adenocarcinoma,"after 7 days, TBI: Inhibited",Inhibited
same,Diseases or functions annotation: Angiogenesis,"after 7 days, TBI: Inhibited",Activated
same,Diseases or functions annotation: Breast or pancreatic cancer,"after 7 days, TBI: Inhibited",Inhibited
same,Diseases or functions annotation: Cancer,"after 7 days, TBI: Inhibited",Activated
same,Diseases or functions annotation: Cancer of cells,"after 7 days, TBI: Inhibited",Activated
same,Diseases or functions annotation: Cancer of secretory structure,"after 7 days, TBI: Inhibited",Activated
same,Diseases or functions annotation: Carcinoma,"after 7 days, TBI: Inhibited",Inhibited
same,Diseases or functions annotation: Cell cycle progression,"after 7 days, TBI: Inhibited",Activated
same,Diseases or functions annotation: Cell movement,"after 7 days, TBI: Inhibited",Activated
same,Diseases or functions annotation: Cell movement of endothelial cells,"after 7 days, TBI: Inhibited",Activated
same,Diseases or functions annotation: Cell movement of myeloid cells,"after 7 days, TBI: Inhibited",Activated
same,Diseases or functions annotation: Cell movement of tumor cell lines,"after 7 days, TBI: Inhibited",Activated
same,Diseases or functions annotation: Cell survival,"after 7 days, TBI: Inhibited",Activated
same,Diseases or functions annotation: Cell viability,"after 7 days, TBI: Inhibited",Activated
same,Diseases or functions annotation: Cell viability of tumor cell lines,"after 7 days, TBI: Inhibited",Activated
same,Diseases or functions annotation: Cellular homeostasis,"after 7 days, TBI: Inhibited",Activated
same,Diseases or functions annotation: Chemotaxis,"after 7 days, TBI: Inhibited",Activated
same,Diseases or functions annotation: Concentration of lipid,"after 7 days, TBI: Inhibited",Inhibited
same,Diseases or functions annotation: Development of body axis,"after 7 days, TBI: Inhibited",Activated
same,Diseases or functions annotation: Development of body trunk,"after 7 days, TBI: Inhibited",Activated
same,Diseases or functions annotation: Development of connective tissue cells,"after 7 days, TBI: Inhibited",Activated
same,Diseases or functions annotation: Development of epithelial tissue,"after 7 days, TBI: Inhibited",Activated
same,Diseases or functions annotation: Development of genitourinary system,"after 7 days, TBI: Inhibited",Inhibited
same,Diseases or functions annotation: Development of head,"after 7 days, TBI: Inhibited",Activated
same,Diseases or functions annotation: Development of neurons,"after 7 days, TBI: Inhibited",Activated
same,Diseases or functions annotation: Development of vasculature,"after 7 days, TBI: Inhibited",Activated
same,Diseases or functions annotation: Differentiation of bone,"after 7 days, TBI: Inhibited",Activated
same,Diseases or functions annotation: Differentiation of bone cells,"after 7 days, TBI: Inhibited",Activated
same,Diseases or functions annotation: Differentiation of connective tissue cells,"after 7 days, TBI: Inhibited",Activated
same,Diseases or functions annotation: Digestive system cancer,"after 7 days, TBI: Inhibited",Inhibited
same,Diseases or functions annotation: Endocrine gland tumor,"after 7 days, TBI: Inhibited",Inhibited
same,Diseases or functions annotation: Expression of RNA,"after 7 days, TBI: Inhibited",Activated
same,Diseases or functions annotation: Genital tumor,"after 7 days, TBI: Inhibited",Activated
same,Diseases or functions annotation: Genitourinary carcinoma,"after 7 days, TBI: Inhibited",Activated
same,Diseases or functions annotation: Genitourinary tumor,"after 7 days, TBI: Inhibited",Activated
same,Diseases or functions annotation: Growth of connective tissue,"after 7 days, TBI: Inhibited",Inhibited
same,Diseases or functions annotation: Growth of epithelial tissue,"after 7 days, TBI: Inhibited",Inhibited
same,Diseases or functions annotation: Growth of tumor,"after 7 days, TBI: Inhibited",Activated
same,Diseases or functions annotation: Head and neck cancer,"after 7 days, TBI: Inhibited",Inhibited
same,Diseases or functions annotation: Head and neck tumor,"after 7 days, TBI: Inhibited",Inhibited
same,Diseases or functions annotation: Invasion of cells,"after 7 days, TBI: Inhibited",Activated
same,Diseases or functions annotation: Leukocyte migration,"after 7 days, TBI: Inhibited",Activated
same,Diseases or functions annotation: Malignant genitourinary solid tumor,"after 7 days, TBI: Inhibited",Activated
same,Diseases or functions annotation: Malignant solid tumor,"after 7 days, TBI: Inhibited",Activated
same,Diseases or functions annotation: Microtubule dynamics,"after 7 days, TBI: Inhibited",Activated
same,Diseases or functions annotation: Migration of cells,"after 7 days, TBI: Inhibited",Activated
same,Diseases or functions annotation: Migration of endothelial cells,"after 7 days, TBI: Inhibited",Activated
same,Diseases or functions annotation: Neoplasia of cells,"after 7 days, TBI: Inhibited",Activated
same,Diseases or functions annotation: Non-hematological solid tumor,"after 7 days, TBI: Inhibited",Activated
same,Diseases or functions annotation: Non-melanoma solid tumor,"after 7 days, TBI: Inhibited",Activated
same,Diseases or functions annotation: Nonhematologic malignant neoplasm,"after 7 days, TBI: Inhibited",Inhibited
